The results in this text go back to patent US4758560A, “Phenyl-(3-hexamethyleneiminopropyl)-ketone” (priority 1985, dated 1988).

Like-named read-outs stand apart in the source and are kept apart here.

Series [1] has as its system femoral artery. Briefly: Comparative assays: femoral vasodilating action (MVD) in nembutal-anesthetized dogs, I.D. route. Further details: key to MVD (minimum dose inducing a femoral vasodilating action): (g): no vasodilating action per I.D. route. It counts as in vivo. To be noted: for therapeutical index (MVD/LD50 ratio): MVD I.D. dogs / LD50 I.V. mice; for minimal effective dose: Canis lupus familiaris, intraduodenal, read-out: MVD (minimum dose inducing in nembutal-anesthetized dogs a femoral vasodilating action). From the text: (e) minimum dose inducing in nembutalanesthetized dogs a femoral
vasodilating action (tested products being administered per I.D. route).

The test system of series [2] is mice. Briefly: Toxicity in mice, intraperitoneal route. The class given is in vivo.
For series [3], the system named is nembutal-anesthetized dogs. The series is described as follows: Cardiovascular study in nembutal-anesthetized dogs, intraduodenal administration (then I.V.). The class given is in vivo. Conditions: for minimal effective dose: Canis lupus familiaris, intraduodenal. The procedure: (§1) The study of the cardiovascular properties has been performed on nembutal-anesthetized dogs, CRL 41 339 being administered intra-duodenallyin solution in physiological saline (bidistilled water containing 9 g/l of NaCl) at pH 7.5 (the maximum concentration of CRL 41 339 used being of 32.4 mg/ml).
(§2) Three dogs (average weight: 14.3 kg), anesthetized with nembutal, receive CRL 41 339 by intraduodenal administration at successive doses of 0.1 mg/kg, 0.5 mg/kg, 1 mg/kg, 2.5 mg/kg, 5 mg/kg and 10 mg/kg, then two of these dogs receive a supplemental dose of CRL 41 339 (10 mg/kg) by intravenous administration.
(§3) The arterial blood pressure, the heart rate, the blood flow through the femoral artery, the blood flow through the vertebral artery and the rectal and cutaneous temperatures are measured.

Series [4] has as its system isoprenaline. The series is described as follows: Effects of isoprenaline after CRL 41 339 in anesthetized dogs. The class given is in vivo. The procedure: as §1, §2, §3
with 1 μg/kg of isoprenaline, the diastolic blood pressure changes from 117 mm Hg (i.e. about 1.5×10^4 Pa) to 37 mm Hg (i.e. about 4.9×10^3 Pa) after CRL 41 339, instead of changing from 144 mm Hg (i.e. about 1.9×10^4 Pa) to 36 mm Hg (i.e. about 4.8×10^3 Pa) in the control animals (i.e. anesthetized dogs receiving only isoprenaline), and the heart rate changes from 175 beats/minute to 238 beats/minute after CRL 41 339, while in the control animals said heart rate increases from 188 beats/minute to 253 beats/minute.

In series [5] the test system is noradrenaline. The series is described as follows: Noradrenaline-induced hypertension after CRL 41 339 in anesthetized dogs. To be noted: for systolic blood pressure with noradrenaline: 2 μg/kg noradrenaline after 19.1 mg/kg I.D. accumulated; for systolic blood pressure before noradrenaline: after 19.1 mg/kg I.D. accumulated. It counts as in vivo. How it is done: as §1, §2, §3
It is also observed that the noradrenaline-induced hypertension is reduced by CRL 41 339 (at an accumulated dose of 19.1 mg/kg I.D.):
with 2 μg/kg of noradrenaline the systolic blood pressure increases from 160 mm Hg (i.e. about 2.1×10^4 Pa) to 253 mm Hg (i.e. about 3.3×10^4 Pa) after administration of CRL 41 339 at an accumulated dose of 19.1 mg/kg I.D., while in the control animals, (anesthetized dogs receiving only noradrenaline) the blood systolic pressure increases from 181 mm Hg (i.e. about 2.4×10^4 Pa) to 301 mm Hg (i.e. about 4×10^4 Pa).

The test system of series [6] is adult human beings. Briefly: Clinical assays in adult human beings. The class given is in vivo. Conditions: arteritis manifestations and ulcers of arterial or venous origin in lower limbs. The text has this: In clinical trials, good results were obtained on adult human beings after administration of CRL 41 339 as vasodilating agent, in particular in the treatment of (i) arteritis manifestations in lower limbs, and (ii) ulcers of arterial or venous origin in lower limbs.

The test system of series [7] is rabbit ear microcirculation. Briefly: Action on rabbit ear microcirculation. It counts as in vivo. Conditions: gastric route, awakened Half Top rabbits. How it is done: […] in an aqueous solution at pH 6.5 (prepared extemporaneously) is administered by gastric route to Half Top rabbit batches (3 males, average weight: […]; and 3 females, average weight 3.3 kg) under a volume of 2 ml/kg. The very same animals used as control animals against themselves receive distilled water per gastric route, under the very same volume. The following parameters are measured: the terminal arteriole diameter, the terminal veinule diameter, the arteriolar pulsatility, the ear cutaneous temperature, the heart rate and the rectal temperature.

Series [8] has as its system femoral artery. Briefly: Action on isolated dog vessels: femoral artery. To be noted: n=5. The procedure:
(§4) Annuli of femoral arteriae and external saphenous veins of nembutal-anesthetized dogs are cut off and placed into aerated (O2 : 96%; CO2 : 4%, by volume) Krebs-Henseleit, kept at 37° C. and subjected to a 0.5 g stretching. These vessels are constricted either with noradrenaline 10^-5 M in the presence of propanolol 10^-6 M, or with KCl 50 mM in the presence of phentolamine 3×10^-6 M. CRL 41 339 is tested at accumulated doses.

Series [9] has as its system external saphenous vein. Briefly: Action on isolated dog vessels: external saphenous vein. Conditions: n=4. The procedure:
as §4

Series [10] concerns perfused hind quarters of rats. Briefly: Action on perfused hind quarters of rats. The class given is in vivo.
The test system of series [11] is femoral artery. Briefly: Comparison of salts: femoral artery flow in nembutal-anesthetized dogs, I.A. route. It counts as in vivo. To be noted: Ex 1 at pH 6, Ex 2 and Ex 3 at pH 4, dose 0: 64, 64, 79, average of 5 assays. How it is done: Three dogs anesthetized with nembutal and having an average weight of 12.9 kg are used as control animals vis-a-vis themselves, and are administered per I.A. route in the femoral artery with phenyl-(3-hexamethyleneiminopropyl)-ketone hydrochloride, fumarate and citrate (Ex 1, Code No.: CRL 41 339; Ex 2, Code No.: CRL 41 339A; and respectively Ex 3, code No.: CRL 41 339B), at equimolar doses.

Series [12] is described as follows: Solubility in water. To be noted: white powder, very soluble in water. The class given is physicochemical.
For series [13], the system named is mice.
Series [14] has as its system Salmonella typhimurium.
A short description of series [15]: in vivo. Conditions: mouse, iv, LD-50 I.V. mice.
Setting [16] is: 10 mg/kg I.V., supplemental to I.D. doses.
Setting [17] is: after accumulated dose of 19.1 mg/kg I.D.
Setting [18] is: KCl 50 mM with phentolamine 3×10^-6 M.
The mark [19] stands for this setting: noradrenaline 10^-5 M with propanolol 10^-6 M.
Where [20] appears, read: nembutal-anesthetized, noradrenaline-constricted.

For the compound `COc1cc(OC)c(C(=O)CCCN2CCCCC2)c(OC)c1` [A-3], in [1] (dogs, I.D. route), the “MVD (minimum dose inducing a femoral vasodilating action)” value is on record as “(g)”.

For `Cl.O=C(CCCN1CCCCCC1)c1ccccc1` [Ex 1, phenyl-(3-hexamethyleneiminopropyl)-ketone hydrochloride], in series [2], the “LD-30 (lethal dose for 30% of the treated animals)” value is recorded as “about 128 mg/kg”, the “LD-100 (minimum lethal dose for all the treated animals)” value is not above 256 mg/kg and the “LD-O (maximum non-lethal dose)” value is “higher than 64 mg/kg”. Moreover, in series [3] (setting [16]), the “blood pressure effect of supplemental I.V. dose” value is recorded as “hypotension” and the “heart rate effect of supplemental I.V. dose” value is listed as “bradycardia”. The minimal effective dose in series [3] (I.D., accumulated dose, read-out: accumulated dose as from which femoral artery flow is highly increased) amounted to 4.1 mg/kg. The minimal effective dose in series [3] (I.D., single successive dose, read-out: dose as from which femoral artery flow is highly increased) was 2.5 mg/kg. Besides, in series [3] (I.D. route), the blood arterial pressure entry is recorded as “does not modify”, the heart beat entry was “does not modify” and the respiration rate entry is “reduces the respiration rate”. In addition, the femoral artery flow result in series [3] (I.D., as from the dose of 2.5 mg/kg (accumulated 4.1 mg/kg)) is “highly increases”. Also, in series [4] (1 μg/kg isoprenaline after CRL 41 339 (19.1 mg/kg I.D. accumulated), controls 36), the “diastolic blood pressure with isoprenaline” value came out at 37 mm Hg. Moreover, the “heart rate with isoprenaline” value in [4] (1 μg/kg isoprenaline after CRL 41 339 (19.1 mg/kg I.D. accumulated), controls 253) amounted to 238 beats/minute. In addition, the “diastolic blood pressure with isoprenaline” value in series [4] (1 μg/kg isoprenaline after CRL 41 339 (19.1 mg/kg I.D. accumulated), controls about 4.8×10^3 Pa) is listed as “about 4.9×10^3 Pa”. In addition, the “diastolic blood pressure before isoprenaline” value in series [4] (after CRL 41 339 (19.1 mg/kg I.D. accumulated), controls 144) was 117 mm Hg. Further, the “heart rate before isoprenaline” value in series [4] (after CRL 41 339 (19.1 mg/kg I.D. accumulated), controls 188) came to 175 beats/minute. Besides, the “diastolic blood pressure before isoprenaline” value in series [4] (after CRL 41 339 (19.1 mg/kg I.D. accumulated), controls about 1.9×10^4 Pa) was “about 1.5×10^4 Pa”. In [4] (setting [17]), the “effects of isoprenaline as regards the diastolic blood pressure” value is on record as “not modified” and the “effects of isoprenaline as regards the heart rate” value was “slightly reduced”. In [5] (controls 301), the “systolic blood pressure with noradrenaline” value is reported as 253 mm Hg. In addition, the “systolic blood pressure with noradrenaline” value in series [5] (controls about 4×10^4 Pa) was “about 3.3×10^4 Pa”. For the same compound, in [5] (accumulated dose of 19.1 mg/kg I.D.), the noradrenaline-induced hypertension entry is on record as “reduced”. In addition, the “systolic blood pressure before noradrenaline” value in series [5] (controls 181) worked out at 160 mm Hg. Besides, the “systolic blood pressure before noradrenaline” value in [5] (controls about 2.4×10^4 Pa) is given as “about 2.1×10^4 Pa”. Also, the “vasodilating activity compared with reference compounds” value in [1] (I.D. route, vs LL 1656 and CRL 41 080) is listed as “more active as a vasodilating substance per introduodenal route”. Besides, the “therapeutical index (MVD/LD50 ratio)” value in series [1] amounted to 0.032. Besides, in [1] (vs A-1, A-2, A-3), the “superiority as regards peripheral vasodilating activity” value is listed as “superiority”. Also, the “clinical trials, as vasodilating agent” value in series [6] is “good results”. Also, in [7], the arteriolar pulsatility result is listed as “stronghly increases”; the “arteriolar pulsatility/heart rate ratio” value is recorded as “stronghly increases”; the “duration of terminal arteriole dilation” value is given as 0.5 h; the ear cutaneous temperature entry was “important and lasting increase”. Besides, in series [7], the heart rate result is listed as “without modifying the heart rate”, the terminal arteriole diameter result is “moderately dilates” and the veinular diameter result is recorded as “no action”. For the same compound, the IC50 in [8] (Canis lupus familiaris, noradrenaline 10^-5 M with propanolol 10^-6 M, read-out: CI-50 (molar concentration which reduces of 50% the contraction), artery) was 5.9 µM. In series [8] (setting [18]), the “action on femoral artery constriction induced by KCl” value is on record as “no action”. For the same compound, the “action on artery constricted by noradrenaline” value in series [8] (setting [19]) is given as “slakening”. Further, the IC50 in series [9] (Canis lupus familiaris, noradrenaline 10^-5 M with propanolol 10^-6 M, read-out: CI-50 (molar concentration which reduces of 50% the contraction), vein) turned out to be 130 µM. Moreover, the “action on external saphenous vein constriction induced by KCl” value in series [9] (setting [18]) is reported as “no action”. In series [9] (setting [19]), the “action on vein constricted by noradrenaline” value is “slakening”. Besides, in [10] (believed to be involved in the vasodilating activity), the anti-noradrenaline activity result is “important anti-noradrenaline activity”. Moreover, in [10] (setting [20]), the “duration of vasodilating effect” value was “increases with the dose” and the “vasodilating effect on hind quarters of rats” value is on record as “important vasodilating effect”. Besides, in series [11] (dose 10^-5 M), the Femoral flow amounted to 166 mL/min. Moreover, the Femoral flow in series [11] (dose 10^-6 M) came out at 117 mL/min. The Femoral flow in series [11] (dose 10^-7 M) was found to be 83 mL/min. Besides, the solubility in series [12] was 100 mg/mL. Besides, the “superiority as regards toxicity” value in [13] (mouse, in vivo) is “superiority”. In addition, the “toxicity compared with reference compounds” value in series [13] (vs LL 1656 and CRL 41 080) is on record as “less toxic”. The mutagenic activity result in series [14] is “devoid of mutagenic activity”. In [15], this compound registered an LD50 of 128 mg/kg.

With `O=C(CCCN1CCCCCC1)c1ccccc1.O=C(O)CC(O)(CC(=O)O)C(=O)O` [Ex 3, phenyl(3-hexamethyleneiminopropyl)-ketone citrate], the Femoral flow in [11] (dose 10^-5 M) worked out at 197 mL/min; in series [11] (dose 10^-6 M) it was 127 mL/min; in series [11] (dose 10^-7 M), 90 mL/min.

With `COc1cc(OC)c(C(=O)CCCN2CCCC2)c(OC)c1.Cl` [A-1, (2,4,6-trimethoxyphenyl)-(3-pyrrolidinopropyl)-ketone hydrochloride], the minimal effective dose in [1] (dogs, I.D. route) was 6 mg/kg. In addition, the “therapeutical index (MVD/LD50 ratio)” value in [1] came to 0.100. The compound further displayed a median lethal dose (LD50) in [15] of 60 mg/kg.

In the case of `COc1cc(OC)c(C(=O)CCCN2CCCCCC2)c(OC)c1.Cl` [A-2, (2,4,6-trimethoxyphenyl)-(3-hexamethyleneiminopropyl)-ketone hydrochloride], the minimal effective dose in series [1] (dogs, I.D. route) turned out to be 5 mg/kg. The “therapeutical index (MVD/LD50 ratio)” value in [1] worked out at 0.053. This compound also returned an LD50 in series [15] of 96 mg/kg.

Turning to `O=C(CCCN1CCCCCC1)c1ccccc1.O=C(O)/C=C/C(=O)O` [Ex 2, phenyl(3-hexamethyleneiminopropyl)-ketone fumarate], the Femoral flow is 168 mL/min in series [11] (dose 10^-5 M), 117 mL/min in series [11] (dose 10^-6 M) and 76 mL/min in series [11] (dose 10^-7 M).

One may read the solubility as the concentration that dissolves in the medium under given conditions. What is called LD50 is the dose expected to kill half of the subjects tested.
